One may read the pIC50 as the IC50 on a negative log10 scale, so that one unit is a factor of ten.

22 compounds from ChEMBL document CHEMBL1130517 (Bioorg Med Chem Lett, 1997) can be followed below.

Assay [1] concerns the target T1, Endothelin-1 receptor (Homo sapiens, UniProt P25101).
T1 sequence (P25101 whole entry): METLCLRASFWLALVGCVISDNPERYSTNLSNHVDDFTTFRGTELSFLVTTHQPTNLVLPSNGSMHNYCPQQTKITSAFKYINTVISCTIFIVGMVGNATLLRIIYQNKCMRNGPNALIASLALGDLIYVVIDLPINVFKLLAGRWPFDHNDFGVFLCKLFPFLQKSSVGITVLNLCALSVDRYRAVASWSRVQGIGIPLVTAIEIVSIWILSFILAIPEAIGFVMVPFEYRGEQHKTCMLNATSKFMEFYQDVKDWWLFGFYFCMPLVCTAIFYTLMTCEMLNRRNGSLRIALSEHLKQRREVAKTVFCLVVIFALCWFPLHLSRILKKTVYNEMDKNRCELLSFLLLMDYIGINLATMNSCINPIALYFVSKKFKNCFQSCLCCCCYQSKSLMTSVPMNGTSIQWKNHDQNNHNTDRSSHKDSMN
Description: Receptor binding affinity was determined against [125I]ET1 with recombinant human ETA receptor, expressed in baculovirus-infected Sf9 cells.

Assay [2] has as its target T2, Endothelin receptor type B (Homo sapiens, UniProt P24530).
T2 sequence (P24530 whole entry): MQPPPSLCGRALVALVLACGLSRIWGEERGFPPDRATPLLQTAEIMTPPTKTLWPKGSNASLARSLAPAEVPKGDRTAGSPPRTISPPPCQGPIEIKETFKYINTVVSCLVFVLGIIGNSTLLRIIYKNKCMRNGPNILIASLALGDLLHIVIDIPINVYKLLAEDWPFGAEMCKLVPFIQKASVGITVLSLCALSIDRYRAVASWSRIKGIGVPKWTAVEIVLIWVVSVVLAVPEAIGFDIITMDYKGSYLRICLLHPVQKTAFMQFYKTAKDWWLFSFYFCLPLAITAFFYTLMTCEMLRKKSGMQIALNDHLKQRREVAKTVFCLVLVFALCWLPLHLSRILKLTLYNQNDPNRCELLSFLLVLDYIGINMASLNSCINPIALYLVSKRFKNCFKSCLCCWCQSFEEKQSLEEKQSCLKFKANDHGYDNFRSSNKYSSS
Description: Receptor binding affinity was determined against [125I]ET1 with membranes prepared from human placenta for ETB receptor.

Assay [3] concerns the target T3, Endothelin-1 receptor (Rattus norvegicus, UniProt P26684).
T3 sequence (P26684 whole entry): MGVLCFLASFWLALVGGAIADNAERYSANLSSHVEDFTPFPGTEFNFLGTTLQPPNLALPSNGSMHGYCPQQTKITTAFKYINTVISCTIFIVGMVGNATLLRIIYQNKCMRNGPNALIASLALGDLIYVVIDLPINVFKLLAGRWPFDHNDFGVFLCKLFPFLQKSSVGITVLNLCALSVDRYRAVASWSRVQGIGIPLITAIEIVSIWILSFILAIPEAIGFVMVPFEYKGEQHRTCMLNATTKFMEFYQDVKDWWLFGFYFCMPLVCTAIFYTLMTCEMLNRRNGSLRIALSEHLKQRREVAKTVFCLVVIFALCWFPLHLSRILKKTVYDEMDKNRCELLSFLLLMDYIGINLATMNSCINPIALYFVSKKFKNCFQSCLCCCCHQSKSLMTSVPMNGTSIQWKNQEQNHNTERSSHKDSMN
Description: Evaluation for functional inhibitory potency prevention of ET-1 induced constriction of rat aortic rings (ETA receptors). To be noted: read-out: pA2 (converted).

Assay [4] deals with T4, Endothelin receptor type B (Rattus norvegicus, UniProt P21451).
T4 sequence (P21451 whole entry): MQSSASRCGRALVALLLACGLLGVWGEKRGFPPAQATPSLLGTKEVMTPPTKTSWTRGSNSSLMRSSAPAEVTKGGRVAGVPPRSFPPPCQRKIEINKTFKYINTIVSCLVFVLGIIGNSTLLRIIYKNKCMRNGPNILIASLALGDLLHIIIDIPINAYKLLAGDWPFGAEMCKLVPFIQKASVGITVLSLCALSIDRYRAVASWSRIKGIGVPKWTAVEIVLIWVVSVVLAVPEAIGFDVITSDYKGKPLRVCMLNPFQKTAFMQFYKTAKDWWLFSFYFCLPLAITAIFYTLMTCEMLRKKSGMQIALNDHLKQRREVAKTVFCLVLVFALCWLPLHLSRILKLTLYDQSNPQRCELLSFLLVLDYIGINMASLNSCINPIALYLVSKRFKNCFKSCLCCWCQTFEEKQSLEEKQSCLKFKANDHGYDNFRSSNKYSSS
As to the kind of experiment: Compound was evaluated for in vitro functional inhibitory potency for prevention of sarafotoxin S6c induced constriction of rat tracheal rings (ETB receptors). Conditions: read-out: pA2 (converted).

The target in assay [5] is T1, Endothelin-1 receptor. Description: Receptor binding affinity was determined in a radioligand binding assay against [125I]ET1 with recombinant human ETA receptor, expressed in baculovirus-infected […] cells.
In assay [6] the target is T3, Endothelin-1 receptor. Description: Compound was evaluated for in vitro functional inhibitory potency for prevention of ET-1 induced constriction of rat aortic rings (ETA receptors). To be noted: read-out: pA2 (converted).

pIC50: −log10 of the molar value.

On to `CCCc1nc(NS(=O)(=O)c2ccc(C(C)(C)C)cc2)c(Oc2ccccc2OC)c(OCCOC(=O)Nc2ccccn2)n1`, for which the pIC50 at Endothelin-1 receptor [1] was 8.05; in assay [2], 7.20. Besides, the Kb on Endothelin-1 receptor [3] was 0.0126 µM.

As to `COc1ccccc1Oc1c(NS(=O)(=O)c2ccc(C(C)(C)C)cc2)nc(C(C)(C)C)nc1OCCOC(=O)Nc1ccccn1`, the pIC50 is 7.85 on Endothelin-1 receptor [1] and 6.84 in assay [2]. Further, the Kb on Endothelin-1 receptor [3] was 0.0251 µM.

For `COc1ccccc1Oc1c(NS(=O)(=O)c2ccc(C(C)(C)C)cc2)nc(C)nc1OCCOC(=O)Nc1ccncc1`, the negative-log IC50 (pIC50) was 5.72 on Endothelin-1 receptor [1] and 5.55 in assay [2].

As for `COc1ccccc1Oc1c(NS(=O)(=O)c2ccc(C(C)C)cn2)nc(N2CCSCC2)nc1OCCOC(=O)Nc1ccccn1`, the negative logarithm of the IC50 (pIC50) is 9.00 at Endothelin-1 receptor [1] and 7.85 in assay [2]. Moreover, the Kb at Endothelin-1 receptor [3] was 0.00159 µM.

In the case of `CNCC(=O)OCCOc1nc(C)nc(NS(=O)(=O)c2ccc(C(C)(C)C)cc2)c1Oc1ccccc1OC`, the negative-log IC50 (pIC50) was 5.77 at Endothelin-1 receptor [1] and 6.52 in assay [2].

Regarding `COc1ccccc1Oc1c(NS(=O)(=O)c2ccc(C(C)(C)C)cc2)nc(-c2ncccn2)nc1OCCOC(=O)Nc1ccccn1`, the negative logarithm of the IC50 (pIC50) in assay [2] was 7.37. Moreover, the Kb on Endothelin-1 receptor [3] is 0.001 µM.

In the case of `COc1ccccc1Oc1c(NS(=O)(=O)c2ccc(C(C)C)cn2)nc(-c2ncccn2)nc1OCCOC(=O)Nc1ccccn1`, the pIC50 on Endothelin-1 receptor [1] was 8.40; in assay [2] it was 7.31. Moreover, the Kb at Endothelin-1 receptor [3] is 0.0001 µM.

For the compound `COc1ccccc1Oc1c(NS(=O)(=O)c2ccc(C)cn2)nc(-c2ncccn2)nc1OCCOC(=O)Nc1ccccn1`, the negative-log IC50 (pIC50) was 8.40 on Endothelin-1 receptor [1] and 6.77 in assay [2]. Besides, at Endothelin-1 receptor [3], the Kb was 0.001 µM.

As to `COc1ccccc1Oc1c(NS(=O)(=O)c2ccc(C(C)(C)C)cc2)nc(N2CCOCC2)nc1OCCOC(=O)Nc1ccccn1`, the figures for the pIC50 (on Endothelin-1 receptor [1]; in assay [2]) were 7.77 and 7.72, respectively. For the same compound, the Kb at Endothelin-1 receptor [3] was 0.01 µM.

`COc1ccccc1Oc1c(NS(=O)(=O)c2ccc(C(C)(C)C)cc2)nc(-c2cccs2)nc1OCCOC(=O)Nc1ccccn1`: the figures for the negative logarithm of the IC50 (pIC50) (on Endothelin-1 receptor [1]; in assay [2]) were 7.52 and 6.70, respectively. Also, the Kb on Endothelin-1 receptor [3] was 0.01 µM.

Turning to `COc1ccccc1Oc1c(NS(=O)(=O)c2ccc(C)cn2)nc(N2CCOCC2)nc1OCCOC(=O)Nc1ccccn1`, the negative logarithm of the IC50 (pIC50) is 9.70 on Endothelin-1 receptor [1] and 7.60 in assay [2]. At Endothelin-1 receptor [3], the Kb is 0.0002 µM.

As for `COc1ccccc1Oc1c(NS(=O)(=O)c2ccc(C(C)(C)C)cc2)nc(C2CC2)nc1OCCOC(=O)Nc1ccccn1`, the pIC50 at Endothelin-1 receptor [1] was 8.15; in assay [2], 7.22. Also, on Endothelin-1 receptor [3], the Kb was 0.02 µM.

On to `COc1ccccc1Oc1c(NS(=O)(=O)c2ccc(C(C)(C)C)cc2)nc(C)nc1OCCOC(=O)c1cccnc1`, for which the pIC50 on Endothelin-1 receptor [1] is 6.06; in assay [2] it was 6.11.

For `COc1ccccc1Oc1c(NS(=O)(=O)c2ccc(C(C)(C)C)cc2)nc(C)nc1OCCOC(=O)Nc1cccnc1`, the negative-log IC50 (pIC50) on Endothelin-1 receptor [1] was 6.05; in assay [2] it was 6.15.

As to `COc1ccccc1Oc1c(NS(=O)(=O)c2ccc(C(C)(C)C)cc2)nc(C)nc1OCCOC(=O)Nc1ccccn1`, the negative logarithm of the IC50 (pIC50) was 8.10 at Endothelin-1 receptor [1] and 6.92 in assay [2].

Take `COc1ccccc1Oc1c(NS(=O)(=O)c2ccc(C(C)C)cn2)nc(N2CCCCC2)nc1OCCOC(=O)Nc1ccccn1`: the figures for the negative-log IC50 (pIC50) (at Endothelin-1 receptor [1]; in assay [2]) were 8.52 and 7.60, respectively. Also, the Kb at Endothelin-1 receptor [3] was 0.00501 µM.

In the case of `COc1ccccc1Oc1c(NS(=O)(=O)c2ccc(C(C)(C)C)cc2)nc(C)nc1OCCNC(=O)Nc1ccccn1`, the negative logarithm of the IC50 (pIC50) on Endothelin-1 receptor [1] was 7.10; in assay [2], 5.91.

Consider `COc1ccccc1Oc1c(NS(=O)(=O)c2ccc(C(C)(C)C)cc2)nc(C(C)C)nc1OCCOC(=O)Nc1ccccn1`, for which the values for the negative-log IC50 (pIC50) (at Endothelin-1 receptor [1]; in assay [2]) were 8.15 and 6.80, respectively. On Endothelin-1 receptor [3], the Kb was 0.0158 µM.

Regarding `COc1ccccc1Oc1c(NS(=O)(=O)c2ccc(C(C)C)cn2)nc(N2CCOCC2)nc1OCCOC(=O)Nc1ccccn1`, the values for the negative logarithm of the IC50 (pIC50) (on Endothelin-1 receptor [1]; in assay [2]; on Endothelin-1 receptor [5]) were 9.52, 8.30 and 9.15, respectively. Moreover, the Kb was 0.0251 µM in assay [4] and 0.000501 µM at Endothelin-1 receptor [6].

Take `COc1ccccc1Oc1c(NS(=O)(=O)c2ccc(C(C)(C)C)cc2)nc(C)nc1OCCO`: the negative-log IC50 (pIC50) on Endothelin-1 receptor [1] was 5.82; in assay [2], 7.15.

As for `COc1ccccc1Oc1c(NS(=O)(=O)c2ccc(C(C)(C)C)cc2)nc(C)nc1OCCOC(=O)c1ccoc1`, the pIC50 on Endothelin-1 receptor [1] is 5.96; in assay [2], 6.00.

For the compound `COc1ccccc1Oc1c(NS(=O)(=O)c2ccc(C(C)(C)C)cc2)nc(-c2ncccn2)nc1OCCO` [BOSENTAN], the results for the Kb (in assay [4]; on Endothelin-1 receptor [6]) were 1.58 µM and 0.0501 µM, respectively.
